Among the test systems are CCRF-CEM leukemia; EKVX NSCLC; HL-60(TB) leukemia; HOP-92 NSCLC; IGROV1 ovarian; K-562 leukemia; KM12 colon; MALME-3M melanoma; MCF7 breast; NCI-H460 lung; NCI-H522 lung; NCI/ADR-RES ovarian; OVCAR-3 ovarian; OVCAR-4 ovarian; OVCAR-8 ovarian; RPMI-8226 leukemia; SF-268 CNS; SF-295 CNS; SW-620 colon; T-47D breast.
Common to all, as to experiment: NCI tumour cell line growth inhibition, 48 h

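Tested at 5 concentrations; 48 h exposure; 96-well plates; endpoints linearly interpolated, else capped at highest concentration. TGI is the concentration that stops growth completely.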

Turning to `O=C(Oc1cccnc1)c1cc2cc(CCl)ccc2oc1=O`, the TGI is above 100 µM with CCRF-CEM leukemia; 52.1 µM with EKVX NSCLC; 58.4 µM in the experiment with HL-60(TB) leukemia; 36.9 µM in the experiment on HOP-92 NSCLC; 66.3 µM in the experiment on IGROV1 ovarian; 40.6 µM in the experiment on K-562 leukemia. Also, the TGI in the experiment on KM12 colon is above 100 µM; in the experiment on MALME-3M melanoma it was 54.9 µM; with MCF7 breast, 11.3 µM; in the experiment with NCI-H460 lung it was above 100 µM; with NCI-H522 lung, 35.5 µM; with NCI/ADR-RES ovarian, 76.6 µM. In addition, the TGI in the experiment with OVCAR-3 ovarian is 57.9 µM; in the experiment on OVCAR-4 ovarian, 60.3 µM; in the experiment on OVCAR-8 ovarian, above 100 µM; in the experiment on RPMI-8226 leukemia, 66 µM; in the experiment on SF-268 CNS, 45.3 µM; in the experiment with SF-295 CNS, above 100 µM. For the same compound, the TGI in the experiment on SW-620 colon is above 100 µM; with T-47D breast, 48 µM.
For `CCC(C)C1NC(=O)C(NC(=O)c2c3[nH]c4c(C(=O)NC5C(=O)NC(C(C)CC)C(=O)N6CCCC6C(=O)N(C)CC(=O)N(C)C(C(C)C)C(=O)OC5C)ccc(C)c4oc-3c(C)c(=O)c2=O)C(C)OC(=O)C(C(C)C)N(C)C(=O)CN(C)C(=O)C2CCCN2C1=O` (centres undefined), the TGI was 9.81 µM in the experiment on CCRF-CEM leukemia; above 100 µM in the experiment with EKVX NSCLC; 52.2 µM in the experiment with HL-60(TB) leukemia; above 80.3 µM in the experiment on HOP-92 NSCLC; above 100 µM in the experiment with IGROV1 ovarian; above 65 µM in the experiment with K-562 leukemia. Further, the TGI was above 56.7 µM with KM12 colon; 22.8 µM in the experiment with MALME-3M melanoma; above 33 µM in the experiment with MCF7 breast; 8.45 µM in the experiment with NCI-H460 lung; 5.06 µM in the experiment on NCI-H522 lung; above 100 µM with NCI/ADR-RES ovarian. Also, the TGI was 62.9 µM in the experiment on OVCAR-3 ovarian; above 89.1 µM with OVCAR-4 ovarian; 38.3 µM in the experiment on OVCAR-8 ovarian; 35.1 µM in the experiment with RPMI-8226 leukemia; 97.4 µM in the experiment on SF-268 CNS; above 93 µM in the experiment on SF-295 CNS. The TGI is above 93.7 µM in the experiment on SW-620 colon and above 40.5 µM in the experiment with T-47D breast.
Regarding `CN1CCc2c(sc3ncn(C)c(=N)c23)C1`, the TGI in the experiment on CCRF-CEM leukemia, with EKVX NSCLC, with HL-60(TB) leukemia, with HOP-92 NSCLC, in the experiment with IGROV1 ovarian and in the experiment with K-562 leukemia was above 100 µM each time. The TGI with KM12 colon, in the experiment with MALME-3M melanoma, in the experiment with MCF7 breast, with NCI-H460 lung, in the experiment on NCI-H522 lung and in the experiment on NCI/ADR-RES ovarian was above 100 µM in each case. For the same compound, the TGI in the experiment on OVCAR-3 ovarian, with OVCAR-4 ovarian, with OVCAR-8 ovarian, in the experiment on RPMI-8226 leukemia, in the experiment on SF-268 CNS and in the experiment with SF-295 CNS was above 100 µM each time. In addition, the TGI with SW-620 colon and in the experiment on T-47D breast was above 100 µM each time.
`CCCCCCCCCCCCC/C=C/[C@@H](O)[C@H](COC1OC(CO)C(OC2OC(CO)C(O)C(OC3(C(=O)O)CC(O)C(NC(C)=O)C(C(O)C(O)CO)O3)C2O)C(O)C1O)N=[N+]=[N-]` (some centres undefined): the TGI in the experiment with CCRF-CEM leukemia was 43.4 µM; in the experiment with EKVX NSCLC it was above 100 µM; in the experiment on HL-60(TB) leukemia, 80.8 µM; with HOP-92 NSCLC, above 100 µM; with IGROV1 ovarian, 85.5 µM; in the experiment on K-562 leukemia, 60.6 µM. For the same compound, the TGI was 34.1 µM in the experiment with KM12 colon; 55.5 µM in the experiment with MALME-3M melanoma; above 100 µM in the experiment with MCF7 breast; above 100 µM with NCI-H460 lung; 70.5 µM in the experiment on NCI-H522 lung; 59.9 µM in the experiment with NCI/ADR-RES ovarian. For the same compound, the TGI in the experiment with OVCAR-3 ovarian is above 100 µM; in the experiment on OVCAR-4 ovarian, above 100 µM; in the experiment with OVCAR-8 ovarian, 44.9 µM; in the experiment with RPMI-8226 leukemia, above 100 µM; in the experiment on SF-268 CNS it was 41.3 µM; with SF-295 CNS, 88 µM. Further, the results for the TGI in the experiment with SW-620 colon and in the experiment on T-47D breast were 61.7 µM and above 100 µM, respectively.
Consider `O=C(c1ccccc1)c1c(-c2ccccc2)n(-c2ccccc2)[nH]c(=O)c1=O`, for which the TGI in the experiment with CCRF-CEM leukemia was 35.5 µM; in the experiment on EKVX NSCLC, above 100 µM; with HL-60(TB) leukemia, 85 µM; in the experiment with HOP-92 NSCLC, above 100 µM; in the experiment on IGROV1 ovarian, above 100 µM; in the experiment with K-562 leukemia, 81.4 µM. For the same compound, the TGI in the experiment on KM12 colon was above 100 µM; in the experiment with MALME-3M melanoma it was above 100 µM; in the experiment on MCF7 breast it was above 100 µM; in the experiment on NCI-H460 lung it was above 100 µM; in the experiment on NCI-H522 lung, 38.3 µM; in the experiment with NCI/ADR-RES ovarian, above 100 µM. Also, the TGI in the experiment on OVCAR-3 ovarian, in the experiment on OVCAR-4 ovarian, in the experiment with OVCAR-8 ovarian, in the experiment with RPMI-8226 leukemia, with SF-268 CNS and with SF-295 CNS was above 100 µM each time. This compound also gave a TGI in the experiment on T-47D breast above 100 µM.
In the case of `CN(C)c1ccc(/C=N\NC(=O)Nc2cccc3ccccc23)cc1`, the TGI was above 100 µM in the experiment with CCRF-CEM leukemia; above 100 µM in the experiment with EKVX NSCLC; 7.03 µM in the experiment on HL-60(TB) leukemia; 59.5 µM with HOP-92 NSCLC; 36.6 µM in the experiment with IGROV1 ovarian; above 100 µM in the experiment on KM12 colon. The TGI in the experiment with MALME-3M melanoma was 27.4 µM; in the experiment on MCF7 breast it was 33 µM; in the experiment with NCI-H460 lung it was 31.8 µM; with NCI-H522 lung it was 14 µM; in the experiment with NCI/ADR-RES ovarian, 78.8 µM; with OVCAR-4 ovarian, 40.4 µM. Further, the TGI with OVCAR-8 ovarian was above 100 µM; with RPMI-8226 leukemia, above 100 µM; with SF-268 CNS, 71.8 µM; with SW-620 colon it was above 100 µM; in the experiment on T-47D breast, 19.8 µM.
Take `O=C(c1cccs1)N(C(=O)N1CCN(c2ccccc2)CC1)S(=O)(=O)c1ccccc1`: the TGI in the experiment with CCRF-CEM leukemia was above 100 µM; in the experiment on EKVX NSCLC, 42.3 µM; in the experiment with HL-60(TB) leukemia, 45 µM; in the experiment with HOP-92 NSCLC, 55.6 µM; with K-562 leukemia, 80.5 µM; in the experiment on KM12 colon, above 100 µM. Moreover, the TGI was 42.1 µM in the experiment with MALME-3M melanoma; 74.6 µM in the experiment on MCF7 breast; 97.3 µM with NCI-H460 lung; 34.2 µM with NCI-H522 lung; 57.2 µM with NCI/ADR-RES ovarian; above 100 µM in the experiment with OVCAR-3 ovarian. Moreover, the TGI in the experiment with OVCAR-4 ovarian is above 100 µM; with OVCAR-8 ovarian it was 39.5 µM; with SF-268 CNS, 80.6 µM; with SF-295 CNS, above 100 µM; in the experiment on SW-620 colon, above 100 µM; in the experiment with T-47D breast it was 40.4 µM.
